Consider 6 compounds from ChEMBL document CHEMBL6083241, “The heterodimer of 2-amino-1,8-naphthyridine and 3-aminoisoquinoline binds to the CTG/CTG triad via hydrogen bonding” (Bioorg Med Chem Lett, 2024).

Type in all cases: nucleic-acid assay
In assay [1] the test system is CTG repeat expansion. Description: Binding affinity to dsDNA CTG/CTG triad (unknown origin) assessed as melting temperature at 50 uM […].
In assay [2] the test system is CTG repeat expansion. Nature of the assay: Binding affinity to dsDNA CTG/CTG triad (unknown origin) assessed as change in melting temperature by […].
The subject of assay [3] is TTT/ATA motif. Nature of the assay: Binding affinity to dsDNA TTT/ATA motif (unknown origin) assessed as melting temperature at 50 uM […] (reference value: 16.6 +/-0.2 degreeC).
Assay [4] concerns CAG repeat expansion. Nature of the assay: Binding affinity to dsDNA CAG/CAG triad (unknown origin) assessed as increase in band intensity at 50 uM by circular dichroism analysis. (In general: Circular dichroism is the unequal absorption of left and right circularly polarised light.)
The test system of assay [5] is CAG repeat expansion. Nature of the assay: Binding affinity to dsDNA CAG/CAG motif (unknown origin) assessed as change in melting temperature at 50 uM […].
Assay [6] has as its system CCG/CGG motif. Nature of the assay: Binding affinity to dsDNA CCG/CGG motif (unknown origin) assessed as melting temperature at 50 uM […] (reference value: 44.8 +/-0.5 degreeC).
Assay [7] deals with CAG repeat expansion. Nature of the assay: Binding affinity to dsDNA CAG/CAG motif (unknown origin) assessed as melting temperature at 50 uM […] (reference value: 21.8 +/-0.2 degreeC).
Assay [8] concerns CTG repeat expansion. Description: Binding affinity to dsDNA CTG/CTG motif (unknown origin) assessed as change in enthalpy measured every 2 mins by ITC analysis. Background: Isothermal titration calorimetry measures the heat released or taken up as one component is titrated into another.
The test system of assay [9] is CGG repeat expansion. Nature of the assay: Binding affinity to dsDNA CGG/CGG triad (unknown origin) assessed as increase in band intensity at 50 uM by circular dichroism analysis.
The subject of assay [10] is CCG/CGG motif. Nature of the assay: Binding affinity to dsDNA CCG/CGG motif (unknown origin) assessed as change in melting temperature at 50 uM […].
For assay [11], the system named is CTG repeat expansion. Nature of the assay: Binding affinity to dsDNA CTG/CTG triad (unknown origin) assessed as decrease in imino proton signals by NMR analysis.
For assay [12], the system named is CCG repeat expansion. Description: Binding affinity to dsDNA CCG/CCG triad (unknown origin) assessed as increase in band intensity at 50 uM by circular dichroism analysis.
For assay [13], the system named is TTT/ATA motif. Nature of the assay: Binding affinity to dsDNA TTT/ATA motif (unknown origin) assessed as change in melting temperature at 50 uM […].
In assay [14] the test system is CAG/CTG motif. Description: Binding affinity to dsDNA CAG/CTG motif (unknown origin) assessed as melting temperature at 50 uM […] (reference value: 38.5 +/-0.4 degreeC).
For assay [15], the system named is CAG/CTG motif. Nature of the assay: Binding affinity to dsDNA CAG/CTG motif (unknown origin) assessed as change in melting temperature at 50 uM […].
The target of assay [16] is CTG repeat expansion. Description: Binding affinity to dsDNA CTG/CTG motif (unknown origin) assessed as dissociation constant measured every 2 mins by ITC analysis.
Assay [17] has as its system CTG repeat expansion. Description: Binding affinity to dsDNA CTG/CTG triad (unknown origin) assessed as increase in band intensity by circular dichroism analysis. The following applies: dose 20-60 µM.
In assay [18] the test system is CTG repeat expansion. Nature of the assay: Binding affinity to (CTG)9 repeat DNA (unknown origin) assessed as increase in band intensity at 20 to 60 uM by circular dichroism analysis. The following applies: dose 20-60 µM.
In assay [19] the test system is CGG repeat expansion. Description: Binding affinity to dsDNA CGG/CGG motif (unknown origin) assessed as change in melting temperature at 50 uM […].
In assay [20] the test system is CGG repeat expansion. Nature of the assay: Binding affinity to dsDNA CGG/CGG motif (unknown origin) assessed as melting temperature at 50 uM […] (reference value: 28.2 +/-0.3 degreeC).
Assay [21] has as its system CCG repeat expansion. Nature of the assay: Binding affinity to dsDNA CCG/CCG motif (unknown origin) assessed as melting temperature at 50 uM […] (reference value: 21.6 +/-0.2 degreeC).
The test system of assay [22] is CTG repeat expansion. Nature of the assay: Binding affinity to dsDNA CTG/CTG triad (unknown origin) assessed as increase in band intensity at 50 uM by circular dichroism analysis.
Assay [23] has as its system CCG repeat expansion. Description: Binding affinity to dsDNA CCG/CCG motif (unknown origin) assessed as change in melting temperature at 50 uM […].
Assay [24] relates to CGG repeat expansion. Nature of the assay: Binding affinity to dsDNA CGG/CGG triad (unknown origin) measured upto 50 mins by ITC analysis.
Assay [25] deals with CTG repeat expansion. Nature of the assay: Binding affinity to dsDNA CTG/CTG motif (unknown origin) assessed as gibbs free energy change measured every 2 mins by ITC analysis.
For assay [26], the system named is CTG repeat expansion. Description: Binding affinity to dsDNA CTG/CTG motif (unknown origin) assessed as change in entropy measured every 2 mins by ITC analysis.

Calls of active or inactive are those of the source. The calls are words filed in the database; no cut-off is given here.

On to `Cc1ccc2ccc(NC(=O)OCCCNCCCOC(=O)Nc3ccc4ccc(C)nc4n3)nc2n1`, for which the Tm with CTG repeat expansion [1] was 27.9 °C. Further, the ΔTm (usually the change in melting temperature against a reference sample) in the assay on CTG repeat expansion [2] amounted to 0.1 °C.
On the same counts, the results for `Cc1ccc2ccc(NC(=O)OCCCNCCCOC(=O)Nc3ccccn3)nc2n1` are 27.8 °C and 0 °C.
For the compound `NCCCOC(=O)Nc1cc2ccccc2cn1`, the Tm with CTG repeat expansion [1] turned out to be 28.1 °C. For the same compound, the thermal shift (ΔTm) in the assay on CTG repeat expansion [2] came to 0.3 °C.
On the same counts, the results for `Cc1ccc2ccc(NC(=O)OCCCN)nc2n1` are 28 °C and 0.2 °C.
With `Cc1ccc2ccc(NC(=O)OCCCNCCCOC(=O)Nc3cc4ccccc4cn3)nc2n1`, the Tm in the assay on TTT/ATA motif [3] is 20.1 °C; with CCG/CGG motif [6] it was 44.8 °C; with CAG repeat expansion [7], 24.6 °C; in the assay on CAG/CTG motif [14], 38.2 °C; with CTG repeat expansion [1], 33.6 °C; in the assay with CGG repeat expansion [20], 32.1 °C. Moreover, in the assay on CCG repeat expansion [21], the Tm amounted to 24.1 °C. The result in the assay on CAG repeat expansion [4], in the assay on CGG repeat expansion [9] and in the assay with CCG repeat expansion [12] was inactive. In addition, the ΔTm was 2.8 °C in the assay on CAG repeat expansion [5]; 0 °C in the assay on CCG/CGG motif [10]; 3.5 °C in the assay with TTT/ATA motif [13]; -0.2 °C with CAG/CTG motif [15]; 3.9 °C in the assay on CGG repeat expansion [19]; 2.5 °C in the assay with CCG repeat expansion [23]. Besides, in the assay with CTG repeat expansion [2], the ΔTm is 5.8 °C. For the same compound, in the assay with CTG repeat expansion [8], the deltaH is -37.8 kcal/mol. Further, the outcome with CTG repeat expansion [11], in the assay on CTG repeat expansion [18], in the assay on CTG repeat expansion [22] and in the assay with CGG repeat expansion [24] was Active. Moreover, the Kd (in general, the equilibrium constant for the complex coming apart) at CTG repeat expansion [16] was found to be 1900 nM. In the assay on CTG repeat expansion [17], the Activity entry is “Dose-dependent-effect”. Also, the deltaG with CTG repeat expansion [25] was -7.8 kcal/mol. In addition, in the assay on CTG repeat expansion [26], the -TdeltaS stood at 29.2 kcal/mol.
`Cc1ccc2ccc(NC(=O)OCCCNCCCOC(=O)Nc3ccc4ccccc4n3)nc2n1`: in the assay on CTG repeat expansion [1], the Tm came to 27.7 °C. In addition, the ΔTm with CTG repeat expansion [2] was -0.1 °C.
